Measurements taken from patent publication US5965527A, “Cyclosporin compounds, their preparation and the pharmaceutical compositions which contain them” (Rhone-Poulenc Rorer, S.A., priority 1996, dated 1999).

System: retroviruses
Conditions: combined with AZT, ddl, Saquinavir and/or ribavirin

[(R)-2-(N,N-Dimethylamino)ethylthio-Sar]^3 -cyclosporin A [Example 2]
effect in combination: particularly advantageous effect
